The values below are quoted from earlier work in patent EP4302755B1, “PALBOCICLIB FORMULATION CONTAINING AN AMINO ACID” (Lotus Pharmaceutical Co., Ltd., priority 2022, dated 2024).

Like-named read-outs stand apart in the source and are kept apart here.

For data set [1] the following is noted: at low pH (2.1-4.5).

What is called pKa is the negative logarithm of the acid dissociation constant. Consider `CC(=O)c1c(C)c2cnc(Nc3ccc(N4CCNCC4)cn3)nc2n(C2CCCC2)c1=O` [Palbociclib], for which, in data set [1], the solubility entry was “water soluble”. The pKa is, setting by setting: (the pyridine nitrogen) roughly 4.1; (the secondary piperazine nitrogen) “approximately 7.3”.
